# Measured values from US20240287046A1, “COMPOUNDS AND RADIOLIGANDS FOR TARGETING NEUROTENSIN RECEPTOR AND USES THEREOF” (Full-Life Technologies HK Limited, priority 2022, published 2024).
# System: ASPC-1 tumor-bearing mice
# Assay: Biodistribution of radionuclide labeled complexes in ASPC-1 tumor-bearing mice
# Format: in vivo, BALB/c nude mice
# Conditions: for ratio of tumor AUC verse normal organ AUC: compared to ^177Lu—C2
# Procedure: The BALB/c nude mice (Charles River, Beijing) were utilized to establish the xenografted model for biodistribution study. All animal care and experimental procedure were performed by following the animal protocols approved by the ethics committee of China Institute of Radiation Protection.
# Briefly, each mouse was inoculated with approximately 4×10^6 ASPC-1 cells (human pancreatic cancer cell line) or HT-29 cells (human colorectal adenocarcinoma cell line) expressing human NTSR-1 by subcutaneous injection at rear flank. After inoculation, the xenografted tumors were allowed to grow for ˜2-4 weeks till the tumor weight reached to about 0.05 to 0.50 g (0.20 g in average).
# Biodistribution studies were performed by administrating the radionuclide labeled test compound at a dose of ˜30-50 μCi (100 μL in 0.9% NaCl, ˜1.11-1.85 MBq, with specific activity 30-250 μCi/nmol) to each animal through tail vein injection.
# At different time points after the administration, the mice treated with each compound were euthanized. The tissues and organs of the animals in each group were collected, excised, weighed, and analyzed in a PerkinElmer 2480 WIZARD2γ counter, and the percent injected dose (% ID) and % ID/g of each organ or tissue were calculated.
Compound,% ID/g (4 h) Blood (4 h) [% ID/g],% ID/g (24 h) Blood [% ID/g],% ID/g (72 h) Blood [% ID/g],% ID/g (4 h) Femur (4 h) [% ID/g],% ID/g (24 h) Femur [% ID/g],% ID/g (72 h) Femur [% ID/g],% ID/g (4 h) Heart (4 h) [% ID/g],% ID/g (24 h) Heart [% ID/g],% ID/g (72 h) Heart [% ID/g],% ID/g (4 h) Intestine (4 h) [% ID/g],% ID/g (24 h) Intestine [% ID/g],% ID/g (72 h) Intestine [% ID/g],% ID/g (4 h) Kidney (4 h) [% ID/g],% ID/g (24 h) Kidney [% ID/g],% ID/g (72 h) Kidney [% ID/g],% ID/g (4 h) Liver (4 h) [% ID/g],% ID/g (24 h) Liver [% ID/g],% ID/g (72 h) Liver [% ID/g],% ID/g (4 h) Lung (4 h) [% ID/g],% ID/g (24 h) Lung [% ID/g],also measured
COc1cccc(OC)c1-c1cc(C(=O)NC2(C(=O)O)C3CC4CC(C3)CC2C4)nn1-c1ccc(NCCCN(C)CCCNC(=O)CN2CCN(CC(=O)[O-])CCN(CC(=O)[O-])CCN(CC(=O)[O-])CC2)cc1C(C)C.[177Lu+3] (centres unmarked) [^177Lu-I-2],9.23 ± 0.36,0.28 ± 0.03,0.07 ± 0.01,1.4 ± 0.79,0.39 ± 0.1,0.111 ± 0.09,3.78 ± 0.03,0.4 ± 0.13,0.18 ± 0.1,2.00 ± 0.18,1.00 ± 0.18,0.55 ± 0.11,2.03 ± 0.38,2.39 ± 0.77,1.69 ± 1.04,5.15 ± 1.65,1.66 ± 0.55,1.02 ± 0.44,1.77 ± 0.37,0.39 ± 0.11,tumor AUC over 72 hours compared to ^177Lu—C2: significantly higher tumor AUC; % ID/g (72 h) Lung: 0.17 ± 0.02 % ID/g; % ID/g (4 h) Muscle (4 h): 1.48 ± 1.16 % ID/g; % ID/g (24 h) Muscle: 0.23 ± 0.14 % ID/g; % ID/g (72 h) Muscle: 0.05 ± 0.03 % ID/g; % ID/g (4 h) Pancreas (4 h): 0.54 ± 0.14 % ID/g; % ID/g (24 h) Pancreas: 0.32 ± 0.15 % ID/g; % ID/g (72 h) Pancreas: 0.08 ± 0.02 % ID/g; % ID/g (24 h) Spleen (Spleen): 1.07 ± 0.31 % ID/g; % ID/g (72 h) Spleen (Spleen): 0.19 ± 0.03 % ID/g; % ID/g (4 h) Stomach (4 h): 0.86 ± 0.1 % ID/g; % ID/g (24 h) Stomach: 0.43 ± 0.27 % ID/g; % ID/g (72 h) Stomach: 0.22 ± 0.1 % ID/g; % ID/g (4 h) Tumor (4 h): 23.11 ± 18.15 % ID/g; % ID/g (24 h) Tumor: 25.61 ± 1.69 % ID/g; % ID/g (72 h) Tumor: 15.44 ± 5.61 % ID/g; ratio of tumor AUC verse normal organ AUC: significantly improved
COc1cccc(OC)c1-c1cc(C(=O)NC2(C(=O)O)C3CC4CC(C3)CC2C4)nn1-c1ccc(NCCOCCOCCNC(=O)CN2CCN(CC(=O)[O-])CCN(CC(=O)[O-])CCN(CC(=O)[O-])CC2)cc1C(C)C.[177Lu+3] (centres unmarked) [^177Lu-I-10],0.93 ± 0.29,0.04 ± 0.00,0.01 ± 0.00,0.23 ± 0.06,0.04 ± 0.02,0.02 ± 0,0.41 ± 0.13,0.04 ± 0.02,0.01 ± 0.01,1.86 ± 0.58,0.14 ± 0.01,0.04 ± 0.01,3.02 ± 0.39,0.31 ± 0.11,0.04 ± 0.01,0.96 ± 0.4,0.14 ± 0.01,0.06 ± 0.02,0.74 ± 0.72,0.4 ± 0.26,"% ID/g (72 h) Lung: 0.05 ± 0.03 % ID/g; % ID/g (4 h) Muscle (4 h): 0.13 ± 0.12 % ID/g; % ID/g (24 h) Muscle: 0.01 ± 0.01 % ID/g; % ID/g (72 h) Muscle: 0.011 ± 0.01 % ID/g; % ID/g (4 h) Pancreas (4 h): 0.07 ± 0.01 % ID/g; % ID/g (24 h) Pancreas: 0.04 ± 0.02 % ID/g; % ID/g (72 h) Pancreas: 0.01 ± 0 % ID/g; % ID/g (4 h) Spleen (Spleen, 4 h): 0.3 ± 0.14 % ID/g; % ID/g (24 h) Spleen (Spleen): 0.12 ± 0.05 % ID/g; % ID/g (72 h) Spleen (Spleen): 0.02 ± 0.01 % ID/g; % ID/g (4 h) Stomach (4 h): 1.88 ± 0.59 % ID/g; % ID/g (24 h) Stomach: 0.1 ± 0.07 % ID/g; % ID/g (72 h) Stomach: 0.04 ± 0.01 % ID/g; % ID/g (4 h) Tumor (4 h): 17.97 ± 11.04 % ID/g; % ID/g (24 h) Tumor: 12.27 ± 7.59 % ID/g; % ID/g (72 h) Tumor: 4.24 ± 2.71 % ID/g; ratio of tumor AUC verse normal organ AUC: significantly improved"
